From patent US20260375165A1, “ENGINEERED HUMAN SERINE DEHYDRATASE ENZYMES AND METHODS FOR TREATING CANCER” (BOARD OF REGENTS, THE UNIVERSITY OF TEXAS SYSTEM, priority 2022, published 2026)
Residue numbers refer to the chain shown, from its start.

Key:
Type in all cases: biochemical
[1] = target: T1, human serine dehydratase (hSDH, EC 4.3.1.17), wild type, SEQ ID NO: 1 (Homo sapiens, UniProt P20132); assay: MBTH assay, kcat/Km of purified wild-type hSDH; details: role: substrate
T1 construct: hexahistidine (N); made in house; host or cells: E. coli BL21 (DE3), pET28a
T1 sequence (P20132 1-328): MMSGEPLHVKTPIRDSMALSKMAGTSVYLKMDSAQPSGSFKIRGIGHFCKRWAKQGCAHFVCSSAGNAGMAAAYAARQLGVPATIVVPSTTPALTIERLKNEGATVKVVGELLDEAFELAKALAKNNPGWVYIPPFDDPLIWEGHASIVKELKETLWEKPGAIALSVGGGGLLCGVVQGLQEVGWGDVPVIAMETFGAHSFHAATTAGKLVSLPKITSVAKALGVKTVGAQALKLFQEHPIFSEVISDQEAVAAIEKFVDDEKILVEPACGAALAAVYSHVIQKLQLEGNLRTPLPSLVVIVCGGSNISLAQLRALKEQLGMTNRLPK
Protocol: (§1) Human SDH variants were expressed and purified for subsequent biophysical characterization. In brief, hSDH variants in the pET28a plasmid was transformed into BL21 (DE3) for expression. The cells were grown overnight at 37 °C in 5 mL of TB media with 50 μg/mL of kanamycin. The subsequent morning, cultures were inoculated, at a 1:1000 dilution, into 0.5 L of fresh TB media containing 50 μg/mL of kanamycin. Upon reaching an A600 of 0.6 to 0.8, the culture was moved to 25 °C and isopropyl β-D-1-thiogalactopyranoside (IPTG) was added to a final concentration of 1 mM to induce T7 RNA polymerase expression, and subsequently hSDH variant protein expression. After overnight incubation, cells were harvested via centrifugation at 5,500 rpm for 20 minutes. The cell pellet, after removing the supernatant, was resuspended using 25 mL of pET lysis buffer (10 mM NaH2PO4, 30 mM imidazole, 300 mM NaCl, pH 8.0). The cell suspension was then lysed by sonication and cleared by centrifugation at 14,000 rpm for 40 minutes. The supernatant from this centrifugation step was then filtered using a 0.22 μm membrane. The clarified supernatant was then applied to 1 mL of nickel-nitrotriacetic acid (Ni-NTA) resin that had been pre-equilibrated with 20 mL of pET lysis buffer. The resin was washed with 20 mL (20 column volumes) of pET lysis buffer. Afterward, the resin was incubated with 3 mL of pET elution buffer (10 mM NaH2POd4, 250 mM imidazole, 300 mM NaCl, pH 8.0), equilibrated for 5 minutes, and then eluted. The elution step was then repeated with 2 ml of extra elution buffer to increase recovery. […] Purity of the proteins were analyzed via sodium dodecyl sulfate-polyacrylamide gel electrophoresis (SDS-PAGE) on a 4% to 20% pre-cast Tris-Glycine gel run under reducing conditions (2.5% β-Mercaptoethanol (BME). Protein concentration was determined via A280 under denaturing conditions using a calculated extinction coefficient (8280=33960 M^−1 cm^−1) from Geneious software (v. 8.0.5). […]

[2] = target: T2, human serine dehydratase (hSDH) Variant 2 (S26N, R51H, S63P, M70I, L94P, G129D, A204S, K221R, A222S), SEQ ID NO: 3 (Homo sapiens, UniProt P20132, A204S/A222S/G129D/K221R/L94P/M70I/R51H/S26N/S63P); assay: MBTH assay, kcat/Km of purified hSDH Variant 2; details: role: substrate; threonine 1-100 mM, 1-2 μM enzyme, 37 °C, 20 seconds
T2 sequence (P20132 1-328 S26N/R51H/S63P/M70I/L94P/G129D/A204S/K221R/A222S): T1 sequence (P20132 1-328) with S26N, R51H, S63P, M70I, L94P, G129D, A204S, K221R, A222S
Protocol: as §1, with “minutes.” for “minutes. The supernatant from this centrifugation step was then filtered using a 0.22 μm membrane. The clarified supernatant was then applied to 1 mL of nickel-nitrotriacetic acid (Ni-NTA) resin that had been pre-equilibrated with 20 mL of pET lysis buffer. The resin was washed with 20 mL (20 column volumes) of pET lysis buffer. Afterward, the resin was incubated with 3 mL of pET elution buffer (10 mM NaH2POd4, 250 mM imidazole, 300 mM NaCl, pH 8.0), equilibrated for 5 minutes, and then eluted. The elution step was then repeated with 2 ml of extra elution buffer to increase recovery.”

[3] = target: T3, human serine dehydratase (hSDH) Variant 4 (I13T, S26N, R51H, I96T, D114E, G129D, K221R, A222S, W157R, D261L, L112S), SEQ ID NO: 5 (Homo sapiens, UniProt P20132, A222S/D114E/D261L/G129D/I13T/I96T/K221R/L112S/R51H/S26N/W157R); assay: MBTH assay, kcat/Km of purified hSDH Variant 4; details: role: substrate; threonine 1-100 mM, 1-2 μM enzyme, 37 °C, 20 seconds
T3 sequence (P20132 1-328 I13T/S26N/R51H/I96T/L112S/D114E/G129D/W157R/K221R/A222S/D261L): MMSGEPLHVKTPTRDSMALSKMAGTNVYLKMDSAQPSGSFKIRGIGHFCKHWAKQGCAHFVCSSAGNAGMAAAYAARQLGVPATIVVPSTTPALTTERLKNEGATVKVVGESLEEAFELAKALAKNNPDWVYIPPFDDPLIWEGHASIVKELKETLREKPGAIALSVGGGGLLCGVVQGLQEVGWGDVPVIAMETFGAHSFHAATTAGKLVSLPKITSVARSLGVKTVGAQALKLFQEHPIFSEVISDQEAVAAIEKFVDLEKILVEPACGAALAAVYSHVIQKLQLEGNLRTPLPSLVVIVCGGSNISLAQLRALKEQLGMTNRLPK
Protocol: as §1, with “minutes.” for “minutes. The supernatant from this centrifugation step was then filtered using a 0.22 μm membrane. The clarified supernatant was then applied to 1 mL of nickel-nitrotriacetic acid (Ni-NTA) resin that had been pre-equilibrated with 20 mL of pET lysis buffer. The resin was washed with 20 mL (20 column volumes) of pET lysis buffer. Afterward, the resin was incubated with 3 mL of pET elution buffer (10 mM NaH2POd4, 250 mM imidazole, 300 mM NaCl, pH 8.0), equilibrated for 5 minutes, and then eluted. The elution step was then repeated with 2 ml of extra elution buffer to increase recovery.”

[4] = target: T4, human serine dehydratase (hSDH) Variant 1 (K221F, A222S), SEQ ID NO: 2 (Homo sapiens, UniProt P20132, A222S/K221F); assay: MBTH assay, kcat/Km of purified hSDH Variant 1; details: role: substrate; threonine 1-100 mM, 1-2 μM enzyme, 37 °C, 20 seconds
T4 construct: hexahistidine (N); made in house; host or cells: E. coli BL21 (DE3), pET28a
T4 sequence (P20132 1-328 K221F/A222S): T1 sequence (P20132 1-328) with K221F, A222S
Protocol: as §1, with “minutes.” for “minutes. The supernatant from this centrifugation step was then filtered using a 0.22 μm membrane. The clarified supernatant was then applied to 1 mL of nickel-nitrotriacetic acid (Ni-NTA) resin that had been pre-equilibrated with 20 mL of pET lysis buffer. The resin was washed with 20 mL (20 column volumes) of pET lysis buffer. Afterward, the resin was incubated with 3 mL of pET elution buffer (10 mM NaH2POd4, 250 mM imidazole, 300 mM NaCl, pH 8.0), equilibrated for 5 minutes, and then eluted. The elution step was then repeated with 2 ml of extra elution buffer to increase recovery.”

[5] = target: T5, human serine dehydratase (hSDH) Variant 3 (S26N, R51H, S63P, M70I, L94P, G129D, A204S, K221R, A222S, L112S), SEQ ID NO: 4 (Homo sapiens, UniProt P20132, A204S/A222S/G129D/K221R/L112S/L94P/M70I/R51H/S26N/S63P); assay: MBTH assay, kcat/Km of purified hSDH Variant 3; details: role: substrate; threonine 1-100 mM, 1-2 μM enzyme, 37 °C, 20 seconds
T5 sequence (P20132 1-328 S26N/R51H/S63P/M70I/L94P/L112S/G129D/A204S/K221R/A222S): T3 sequence (P20132 1-328 I13T/S26N/R51H/I96T/L112S/D114E/G129D/W157R/K221R/A222S/D261L) with T13I, S63P, M70I, L94P, T96I, E114D, R157W, A204S, L261D
Protocol: as §1, with “minutes.” for “minutes. The supernatant from this centrifugation step was then filtered using a 0.22 μm membrane. The clarified supernatant was then applied to 1 mL of nickel-nitrotriacetic acid (Ni-NTA) resin that had been pre-equilibrated with 20 mL of pET lysis buffer. The resin was washed with 20 mL (20 column volumes) of pET lysis buffer. Afterward, the resin was incubated with 3 mL of pET elution buffer (10 mM NaH2POd4, 250 mM imidazole, 300 mM NaCl, pH 8.0), equilibrated for 5 minutes, and then eluted. The elution step was then repeated with 2 ml of extra elution buffer to increase recovery.”

[6] = target: T6, human serine dehydratase (hSDH) Variant 5 (I13T, S26N, R51H, I96T, D114E, G129D, K221R, A222G, W157R, D261L, L112S), SEQ ID NO: 6 (Homo sapiens, UniProt P20132, A222G/D114E/D261L/G129D/I13T/I96T/K221R/L112S/R51H/S26N/W157R); assay: MBTH assay, kcat/Km of purified hSDH Variant 5; details: role: substrate; threonine 1-100 mM, 1-2 μM enzyme, 37 °C, 20 seconds
T6 sequence (P20132 1-328 I13T/S26N/R51H/I96T/L112S/D114E/G129D/W157R/K221R/A222G/D261L): T3 sequence (P20132 1-328 I13T/S26N/R51H/I96T/L112S/D114E/G129D/W157R/K221R/A222S/D261L) with S222G
Protocol: as §1, with “minutes.” for “minutes. The supernatant from this centrifugation step was then filtered using a 0.22 μm membrane. The clarified supernatant was then applied to 1 mL of nickel-nitrotriacetic acid (Ni-NTA) resin that had been pre-equilibrated with 20 mL of pET lysis buffer. The resin was washed with 20 mL (20 column volumes) of pET lysis buffer. Afterward, the resin was incubated with 3 mL of pET elution buffer (10 mM NaH2POd4, 250 mM imidazole, 300 mM NaCl, pH 8.0), equilibrated for 5 minutes, and then eluted. The elution step was then repeated with 2 ml of extra elution buffer to increase recovery.”

| Structure (SMILES) | kcat/KM (L-serine to pyruvate) ([1]; irreversible deamination of L-serine to pyruvate) | Kcat /Km (Threonine) [2] | Kcat /Km (Threonine) [3] | kcat/KM (L-threonine to α-ketobutyrate) ([1]; irreversible deamination of L-threonine to α-ketobutyrate) | Kcat /Km (Threonine) ([1]; threonine 1-100 mM, 1-2 μM enzyme, 37 °C, 20 seconds) | Kcat /Km (Threonine) [4] | Kcat /Km (Threonine) [5] | Kcat /Km (Threonine) [6] |
| --- | --- | --- | --- | --- | --- | --- | --- | --- |
| N[C@@H](CO)C(=O)O [Serine, L-serine] | ~ 0.6 s^−1 mM^−1 | – | – | – | – | – | – | – |
| C[C@@H](O)[C@H](N)C(=O)O [Threonine, L-threonine] | – | 2000 ± 50 M⁻¹ s⁻¹ | 6800 ± 700 M⁻¹ s⁻¹ | ~ 1.1 s^−1 mM^−1 | 1100 ± 50 M⁻¹ s⁻¹ | 3800 ± 300 M⁻¹ s⁻¹ | 2800 ± 200 M⁻¹ s⁻¹ | 1700 ± 100 M⁻¹ s⁻¹ |
